Measured values taken from patent US20220315578A1, “BRD9 BIFUNCTIONAL DEGRADERS AND THEIR METHODS OF USE” (NOVARTIS AG, priority 2019, published 2022).
Blank lines part the entries; values can stand above or below the compound they belong to.

Target: T1, BRD9-GFP (Homo sapiens, UniProt Q9H8M2)
T1 construct: CHYSEL (2A cis-acting hydrolase element) remnant after GFP; mCherry is split off as a separate protein (C); expressed in transfected cells; host or cells: HEK293A cells (Invitrogen R70507), lentiviral transduction with pLenti6-BRD9-GFP-CHYSEL-mCherry, blasticidin selection
T1 sequence (Q9H8M2 1-597): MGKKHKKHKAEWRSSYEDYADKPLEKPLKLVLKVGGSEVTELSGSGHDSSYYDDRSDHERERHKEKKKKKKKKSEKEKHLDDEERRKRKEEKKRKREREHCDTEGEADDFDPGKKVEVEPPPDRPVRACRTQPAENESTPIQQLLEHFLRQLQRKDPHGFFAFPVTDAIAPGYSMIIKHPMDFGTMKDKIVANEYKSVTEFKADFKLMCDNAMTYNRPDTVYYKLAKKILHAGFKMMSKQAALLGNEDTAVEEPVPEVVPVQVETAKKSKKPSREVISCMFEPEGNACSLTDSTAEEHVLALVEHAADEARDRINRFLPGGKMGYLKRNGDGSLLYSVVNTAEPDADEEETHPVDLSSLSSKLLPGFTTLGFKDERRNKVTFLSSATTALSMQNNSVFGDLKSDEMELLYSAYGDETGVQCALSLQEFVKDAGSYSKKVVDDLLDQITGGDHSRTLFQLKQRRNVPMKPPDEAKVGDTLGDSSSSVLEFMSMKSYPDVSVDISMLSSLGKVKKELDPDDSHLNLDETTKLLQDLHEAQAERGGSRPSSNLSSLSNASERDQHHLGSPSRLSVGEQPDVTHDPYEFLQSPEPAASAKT
Experiment: BRD9-GFP protein abundance flow cytometry assay in HEK293A cells
Format: cell-based
Settings: HEK293A-BRD9-GFP-CHYSEL-mCherry cells; for BRD9 Deg Amax %: 24 h, % protein remaining at the concentration at which maximum degradation is seen; for DC50: 24 h at 37° C., 10-point 1:3 dilution, concentration at which 50% maximal degradation was observed
Description: Compounds of the invention were tested in the following cellular assays. The terms in Table 1 are defined as follows: DC50 refers to the concentration at which 50% maximal degradation was observed; deg Amax is the extent of degradation and the value refers to the % protein remaining at the concentration at which maximum degradation is seen.
BRD9-GFP protein abundance flow cytometry assay in HEK293A cells: Degradation of BRD9 was measured in HEK293A cells expressing BRD9-GFP and mCherry from a stably integrated second generation bicistronic BRD9-GFP-CHYSELmCherry construct. Reduction of the GFP signal measured by flow cytometry served as readout for BRD9 degradation after degrader treatment.
The bicistronic BRD9-GFP-CHYSEL-mCherry construct is based on a pLenti6-DEST vector backbone where a GFP-CHYSEL-mCherry cassette was synthesized and inserted downstream of the DEST cassette by Gibson assembly resulting in the new gateway compatible vector pLenti6-DEST-GFP-CHYSEL-mCherry to allow Gateway cloning with pENTR221-BRD9 (w/o ATG) to obtain the final sensor construct pLenti6-BRD9-GFP-CHYSEL-mCherry.
HEK293 Å-BRD9-GFP-CHYSEL-mCherry sensor cells were generated by lentiviral vector transduction using the pLenti6-BRD9-GFP-CHYSEL-mCherry sensor construct described before. […] The mix was incubated for another 20 min at RT and then added to 1 ml of a freshly prepared suspension of HEK293FT cells in a well of a 6-well plate (concentration 1.2×10^6 cells/ml). 1 day after transfection, the medium was replaced with 1.5 ml of complete growth medium (DMEM high Glucose+10% FCS+1% L-Glutamine+1% NEAA+1% NaPyr.). 48 h post transfection supernatant containing viral transducing particles was collected and frozen at −80° C. […] Infection was performed with […] of collected supernatant containing viral transducing particles in 1 ml medium including 8 μg/ml polybrene. 24 h post infection, stably transfected cells were selected with blasticidin at a concentration of 8 μg/ml.
Stable HEK293 Å-BRD9-GFP-CHYSEL-mCherry cells were maintained in complete growth medium (DMEM high Glucose+10% FCS+1% L-Glutamine+1% NEAA+1% NaPyr.) with passaging performed twice per week. On Day 0, HEK293 Å-BRD9-GFP-CHYSEL-mCherry cells were seeded at 10,000 cells/well in a 96-well microtiter plate in […] complete medium. On Day 1, cells were treated in duplicate with 10-point 1:3 dilution series of compound using the HP D300 Digital Dispenser (Tecan). DMSO concentrations were normalized across the plate to 0.1%. On Day 2, after 24 h of incubation at 37° C., treatment media was discarded, cells rinsed with 100 ul/well PBS and then detached using 40 ul trypsin/well for 5 min. Trypsin was neutralized with 100 ul/well PBS+20% FCS). Flow cytometry was performed on the samples using the Beckman Coulter CytoFLEX flow cytometer. Cell identification was then performed using forward (FSC) vs. side scatter (SSC) plots. Single cell discrimination is performed using FSC-Width (FSC-W) vs. FSC-Height (FSC-H) plots. Median GFP/mCherry ratio values for 5,000 single cells are used to determine BRD9 levels. Median GFP/mCherry ratio values from HEK293 Å-mCherry are used as a background signal and thus defining 0% BRD9 signal. Median GFP/mCherry ratio values from DMSO treated HEK293 Å-BRD9-GFP-CHYSEL-mCherry are used to define 100% BRD9 signal for subsequent DC50 curves (concentration at 50% BRD9 degradation). Concentration response curves plotting relative reduction of the GFP/mCherry ratio signal (measured by flow cytometry) versus 10 compound concentrations (starting concentration […], 3 fold dilution steps) of the compounds allowed generation of DC50 values. Data is shown in Tables 2 and 3, in which, DC50 refers to the concentration at which 50% maximal degradation was observed; deg Amax is the extent of degradation and the value refers to the % protein remaining at the concentration at which maximum degradation is seen.

BRD9 Deg Amax %: 11.66%
DC50: 7 nM
SMILES: CCCCn1cc(-c2cc(F)c(CN3CCC(OC4CCN(C(=O)c5ccc(OC)c(N6CCC(=O)NC6=O)c5)CC4)CC3)c(OC)c2)c2ccncc2c1=O [Compound E51, 1-(5-(4-((1-(4-(2-butyl-1-oxo-1,2-dihydro-2,7-naphthyridin-4-yl)-2-fluoro-6-methoxybenzyl)-piperidin-4-yl)oxy)piperidine-1-carbonyl)-2-meth-oxyphenyl)dihydro-pyrimidine-2,4(1H,3H)-dione]

BRD9 Deg Amax %: 13.08%
DC50: 2 nM
SMILES: CCCCn1cc(-c2ccc(OC3CCN(CC4CCN(C(=O)c5ccc(OC)c(N6CCC(=O)NC6=O)c5)CC4)CC3)c(F)c2)c2ccncc2c1=O [Compound E34, 1-(5-(4-((4-(4-(2-butyl-1-oxo-1,2-dihydro-2,7-naphthyridin-4-yl)-2-fluorophenoxy)piperidin-1-yl)methyl)piperidine-1-carbonyl)-2-methoxyphenyl)dihydropyrimidine-2,4(1H,3H)-dione]

BRD9 Deg Amax %: 12.45%
DC50: 35 nM
SMILES: COc1cc(-c2cn(C)c(=O)c3cnccc23)c(OC)cc1CN1CCC(O[C@@H]2CCN(CCn3cccc(CN4CCC(=O)NC4=O)c3=O)C[C@H]2F)CC1 [Compound E2, 1-((1-(2-((3R,4R)-4-((1-(2,5-dimethoxy-4-(2-methyl-1-oxo-1,2-dihydro-2,7-naphthyridin-4-yl)benzyl)piperidin-4-yl)oxy)-3-fluoropiperidin-1-yl)ethyl)-2-oxo-1,2-dihydropyridin-3-yl)methyl)dihydropyrimidine-2,4(1H,3H)-dione]

BRD9 Deg Amax %: 11.19%
DC50: 3 nM
SMILES: Cn1cc(-c2cc(F)c(CN3CC[C@@H](OC4CCN(CCn5cccc(CN6CCC(=O)NC6=O)c5=O)CC4)[C@H](F)C3)c(F)c2)c2ccncc2c1=O [Compound E30, 1-((1-(2-(4-(((3R,4R)-1-(2,6-difluoro-4-(2-methyl-1-oxo-1,2-dihydro-2,7-naphthyridin-4-yl)benzyl)-3-fluoropiperidin-4-yl)oxy)piperidin-1-yl)ethyl)-2-oxo-1,2-dihydropyridin-3-yl)methyl)dihydro-pyrimidine-2,4(1H,3H)-dione]

BRD9 Deg Amax %: 17.45%
DC50: 3 nM
SMILES: CCCCn1cc(-c2ccc(OC3CCN(CC4CCN(C(=O)c5ccc(OC)c(N6CCC(=O)NC6=O)c5)CC4)CC3)c(Cl)c2)c2ccncc2c1=O [Compound E43, 1-(5-(4-((4-(4-(2-butyl-1-oxo-1,2-dihydro-2,7-naphthyridin-4-yl)-2-chlorophenoxy)piperidin-1-yl)methyl)piperidine-1-carbonyl)-2-methoxyphenyl)dihydropyrimidine-2,4(1H,3H)-dione]

BRD9 Deg Amax %: 21.29%
DC50: 9 nM
SMILES: CCCCn1cc(-c2cc(F)c(OC3CCN(CCC4CCN(C(=O)c5ccc(OC)c(N6CCC(=O)NC6=O)c5)CC4)CC3)c(F)c2)c2ccncc2c1=O [Compound E6, 1-(5-(4-(2-(4-(4-(2-butyl-1-oxo-1,2-dihydro-2,7-naphthyridin-4-yl)-2,6-difluorophenoxy)piperidin-1-yl)ethyl)piperidine-1-carbonyl)-2-methoxyphenyl)dihydropyrimidine-2,4(1H,3H)-dione]

The remaining lines, values behind:

SMILES: COc1cc(-c2cn(C)c(=O)c3cnccc23)ccc1OC1CCN(CC2CCN(C(=O)c3cccc(N4CCC(=O)NC4=O)c3)CC2)CC1 [Compound A11, 1-(3-(4-((4-(2-Methoxy-4-(2-methyl-1-oxo-1,2-dihydro-2,7-naphthyridin-4-yl)phenoxy)piperidin-1-yl)methyl)piperidine-1-carbonyl)phenyl)dihydropyrimidine-2,4(1H,3H)-dione]
BRD9 Deg Amax %: 19.45%
DC50: 12 nM

SMILES: COc1ccc(C(=O)N2CCC(CN3CCN(Cc4c(OC)cc(-c5cn(C)c(=O)c6cnccc56)cc4OC)CC3)CC2)cc1N1CCC(=O)NC1=O [Compound A24, 1-(5-(4-((4-(2,6-Dimethoxy-4-(2-methyl-1-oxo-1,2-dihydro-2,7-naphthyridin-4-yl)benzyl)piperazin-1-yl)methyl)piperidine-1-carbonyl)-2-methoxyphenyl)dihydropyrimidine-2,4(1H,3H)-dione]
BRD9 Deg Amax %: 13.31%
DC50: 27 nM

SMILES: COc1cc(-c2cn(C)c(=O)c3cnccc23)cc(OC)c1OC1CCN(CC2CCN(C(=O)c3ccc(Cl)c(N4CCC(=O)NC4=O)c3)CC2)CC1 [Compound A9, 1-(2-Chloro-5-(4-((4-(2,6-dimethoxy-4-(2-methyl-1-oxo-1,2-dihydro-2,7-naphthyridin-4-yl)phenoxy)piperidin-1-yl)methyl)piperidine-1-carbonyl)phenyl)dihydropyrimidine-2,4(1H,3H)-dione]
BRD9 Deg Amax %: 20.62%
DC50: 2 nM

SMILES: COc1cc(-c2cn(C)c(=O)c3cnccc23)c(OC)cc1CN1CCC(OC2CCN(C(=O)c3ccc(C)c(N4CCC(=O)NC4=O)c3)CC2)CC1 [Compound A29, 1-(5-(4-((1-(2,5-Dimethoxy-4-(2-methyl-1-oxo-1,2-dihydro-2,7-naphthyridin-4-yl)benzyl)piperidin-4-yl)oxy)piperidine-1-carbonyl)-2-methylphenyl)dihydropyrimidine-2,4(1H,3H)-dione]
BRD9 Deg Amax %: 15.75%
DC50: 34 nM

SMILES: COc1cc(-c2cn(C)c(=O)c3cnccc23)cc(OC)c1CCN1CCC(OC2CCN(C(=O)c3ccc(Cl)c(N4CCC(=O)NC4=O)c3)CC2)CC1 [Compound A38, 1-(2-Chloro-5-(4-((1-(2,6-dimethoxy-4-(2-methyl-1-oxo-1,2-dihydro-2,7-naphthyridin-4-yl)phenethyl)piperidin-4-yl)oxy)piperidine-1-carbonyl)phenyl)dihydropyrimidine-2,4(1H,3H)-dione]
BRD9 Deg Amax %: 15.53%
DC50: 1 nM

SMILES: CCCCn1cc(-c2cc(OC)c(CCN3CCC(OC4CCN(C(=O)c5ccc(Cl)c(N6CCC(=O)NC6=O)c5)CC4)CC3)c(OC)c2)c2ccncc2c1=O [Compound B4, 1-(5-(4-((1-(4-(2-butyl-1-oxo-1,2-dihydro-2,7-naphthyridin-4-yl)-2,6-dimethoxyphenethyl)piperidin-4-yl)oxy)piperidine-1-carbonyl)-2-chlorophenyl)dihydropyrimidine-2,4(1H,3H)-dione]
BRD9 Deg Amax %: 14.82%
DC50: 3 nM
